PMC5772236, “In Vitro Enzymatic Depolymerization of Lignin with Release of Syringyl, Guaiacyl, and Tricin Units” (Applied and Environmental Microbiology, 2018)

Assays:
Type in all cases: biochemical
NaGSTNU = target: T1, NaGSTNU (Novosphingobium aromaticivorans, UniProt Q2G542); test: coupled assay with and without enzyme, HPLC of products; conditions: 25 mM Tris, 2% DMSO, pH 8.0, GSH co-substrate; GS-HPV formed in situ by LigD/LigN/LigE/LigF; both beta-epimers cleaved
T1 construct: gene Saro_2595; recombinant, E. coli B834; N-terminal His tag cut by Tev protease; cloned from genomic DNA
T1 sequence (Q2G542 1-288): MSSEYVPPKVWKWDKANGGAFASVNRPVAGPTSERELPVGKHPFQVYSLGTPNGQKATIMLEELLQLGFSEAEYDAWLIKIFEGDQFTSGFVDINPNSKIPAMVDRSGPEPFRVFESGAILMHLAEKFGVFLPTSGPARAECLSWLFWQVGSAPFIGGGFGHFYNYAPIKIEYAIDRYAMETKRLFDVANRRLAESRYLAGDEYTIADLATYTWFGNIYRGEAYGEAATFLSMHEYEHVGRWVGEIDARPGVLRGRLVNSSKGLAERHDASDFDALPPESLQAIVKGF

LigG = target: T2, LigG (Sphingomonas paucimobilis, UniProt Q9WXJ9); test: coupled assay, HPLC of products; conditions: 25 mM Tris, 2% DMSO, pH 8.0, GSH co-substrate; GS-HPV formed in situ by LigD/LigN/LigE/LigF; epimers not both completely cleaved
T2 construct: recombinant, E. coli, codon optimized; His tag cut by Tev protease (procedure cited)
T2 sequence (Q9WXJ9 1-265): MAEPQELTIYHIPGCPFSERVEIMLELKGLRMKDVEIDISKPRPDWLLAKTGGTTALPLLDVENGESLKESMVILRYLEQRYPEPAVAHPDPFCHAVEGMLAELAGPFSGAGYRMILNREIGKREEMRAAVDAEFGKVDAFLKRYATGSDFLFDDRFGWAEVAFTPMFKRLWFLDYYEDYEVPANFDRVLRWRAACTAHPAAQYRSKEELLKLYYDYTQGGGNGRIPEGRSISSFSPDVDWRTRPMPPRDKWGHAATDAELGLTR

AvGR = target: T3, AvGR (Allochromatium vinosum, UniProt D3RSV1); test: coupled assay with and without AvGR, HPLC of products; conditions: 25 mM Tris, 2% DMSO, pH 8.0; NADH formed in situ by LigD/LigN; GSSG co-substrate
T3 construct: gene Alvin_1323; recombinant, E. coli B834, codon optimized, pVP302K; N-terminal His tag cut by Tev protease
T3 sequence (D3RSV1 1-458): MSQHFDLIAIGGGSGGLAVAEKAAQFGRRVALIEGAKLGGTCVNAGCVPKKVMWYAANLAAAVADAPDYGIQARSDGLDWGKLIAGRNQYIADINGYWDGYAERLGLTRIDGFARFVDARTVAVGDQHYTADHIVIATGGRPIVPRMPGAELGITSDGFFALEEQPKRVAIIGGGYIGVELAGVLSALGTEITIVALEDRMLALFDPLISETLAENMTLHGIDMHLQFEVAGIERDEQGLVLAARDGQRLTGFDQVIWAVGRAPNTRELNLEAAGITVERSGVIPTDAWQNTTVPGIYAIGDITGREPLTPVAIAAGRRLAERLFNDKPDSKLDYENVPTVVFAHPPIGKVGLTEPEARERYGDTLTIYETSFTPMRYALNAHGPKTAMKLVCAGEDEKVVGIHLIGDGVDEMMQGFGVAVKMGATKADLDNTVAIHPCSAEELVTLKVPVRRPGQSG

COc1cc(C(=O)C(CO)SC[C@H](NC(=O)CC[C@H](N)C(=O)O)C(=O)NCC(=O)O)ccc1O (mixture of isomers) [GS-HPV, β-S-glutathionyl-γ-hydroxypropiovanillone]
coupled assay with and without enzyme, HPLC of products (NaGSTNU): the absence of NaGSTNU prevented the conversion of GS-HPV to HPV
coupled assay, HPLC of products (LigG): LigG is not able to completely cleave both β-epimers of GS-HPV in vitro

NC(=O)C1=CN([C@@H]2O[C@H](COP(=O)(O)OP(=O)(O)OC[C@H]3O[C@@H](n4cnc5c(N)ncnc54)[C@H](O)[C@@H]3O)[C@@H](O)[C@H]2O)C=CC1 [NADH]
coupled assay with and without AvGR, HPLC of products (AvGR): the presence of AvGR is sufficient to recycle the cosubstrates NAD^+ and GSH
